Results from US8088763B2 (priority 2004, dated 2012).

Assays:
NA-uptake = NA-uptake (Rattus norvegicus, UniProt Q63380); test: biochemical; details: for inhibition at 10 µM: read-out: NA-uptake [10 μM], % inhibition
5HT-uptake = target: T1, 5HT-uptake (Rattus norvegicus, UniProt P31652); test: biochemical; details: for inhibition at 10 µM: read-out: 5HT-uptake [10 μM], % inhibition
T1 construct: synaptosomes were freshly isolated from areas of rats' brains
T1 sequence (P31652 whole entry): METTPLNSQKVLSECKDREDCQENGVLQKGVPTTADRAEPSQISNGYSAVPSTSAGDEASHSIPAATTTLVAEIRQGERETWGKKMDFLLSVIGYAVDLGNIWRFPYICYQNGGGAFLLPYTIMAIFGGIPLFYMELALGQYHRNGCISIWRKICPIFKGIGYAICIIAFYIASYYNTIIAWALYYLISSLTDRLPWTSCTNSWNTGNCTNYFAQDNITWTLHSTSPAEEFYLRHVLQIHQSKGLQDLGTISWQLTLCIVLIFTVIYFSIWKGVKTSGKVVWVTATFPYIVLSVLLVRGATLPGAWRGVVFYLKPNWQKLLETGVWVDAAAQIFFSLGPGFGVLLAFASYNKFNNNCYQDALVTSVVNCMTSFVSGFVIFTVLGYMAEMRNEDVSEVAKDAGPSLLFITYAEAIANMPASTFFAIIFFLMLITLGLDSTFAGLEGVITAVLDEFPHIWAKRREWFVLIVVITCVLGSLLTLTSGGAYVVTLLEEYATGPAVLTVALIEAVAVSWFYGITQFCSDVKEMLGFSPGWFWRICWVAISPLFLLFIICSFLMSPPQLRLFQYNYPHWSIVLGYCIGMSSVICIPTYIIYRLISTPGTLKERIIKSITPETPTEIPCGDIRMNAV

Sequence of NA-uptake (Q63380 1-617): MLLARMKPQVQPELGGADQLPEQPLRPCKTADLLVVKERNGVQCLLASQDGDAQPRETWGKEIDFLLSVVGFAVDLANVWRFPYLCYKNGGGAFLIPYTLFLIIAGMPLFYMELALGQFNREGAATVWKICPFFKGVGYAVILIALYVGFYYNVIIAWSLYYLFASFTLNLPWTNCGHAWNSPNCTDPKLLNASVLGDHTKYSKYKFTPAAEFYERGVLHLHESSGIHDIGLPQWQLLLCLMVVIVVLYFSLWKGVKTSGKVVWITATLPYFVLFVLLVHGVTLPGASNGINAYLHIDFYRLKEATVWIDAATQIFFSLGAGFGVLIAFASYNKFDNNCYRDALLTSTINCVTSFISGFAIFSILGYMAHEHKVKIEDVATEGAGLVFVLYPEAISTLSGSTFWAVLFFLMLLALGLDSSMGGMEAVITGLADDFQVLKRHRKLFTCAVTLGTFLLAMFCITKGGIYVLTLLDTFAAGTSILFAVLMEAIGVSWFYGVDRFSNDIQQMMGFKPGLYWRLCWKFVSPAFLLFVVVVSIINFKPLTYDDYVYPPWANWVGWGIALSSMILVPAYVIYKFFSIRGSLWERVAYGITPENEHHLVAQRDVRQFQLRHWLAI

SMILES | inhibition at 10 µM (NA-uptake) | inhibition at 10 µM (5HT-uptake) | NA-uptake [10 μM], % inhibition (NA-uptake) | 5HT-uptake [10 μM], % inhibition (5HT-uptake)
Cc1ccc(CC2(N(C)C)CCC(NC(=O)CCC(=O)NC3CCN(Cc4c(Cl)cccc4Cl)C3)CC2)cc1 (stereo not drawn) [Example 1, N-[1-(2,6-dichloro-benzyl)-pyrrolidin-3-yl]-N′-[4-dimethylamino-4-(4-methyl-benzyl)-cyclohexyl]-succinamide] | 71% | 93% | – | –
CN(C)C1(Cc2cccc(Cl)c2)CCC(NC(=O)CCC(=O)NC2CCOC2=O)CC1 (stereo not drawn) [Example 2, N-[4-(3-chloro-benzyl)-4-dimethylamino-cyclohexyl]-N′-(2-oxo-tetrahydro-furan-3-yl)-succinamide] | 87% | 95% | – | –
CN(C)C1(Cc2ccc(Cl)cc2)CCC(NC(=O)CCC(=O)NCCC(c2ccccc2)c2ccccc2)CC1 (stereo not drawn) [Example 3, N-[4-(4-chloro-benzyl)-4-dimethylamino-cyclohexyl]-N′-(3,3-diphenyl-propyl)-succinamide] | 89% | 94% | – | –
COc1cc(CN2CCN(C(=O)CCC(=O)NC3CCC(Cc4ccc(C)cc4)(N(C)C)CC3)CC2)cc2c1OCO2 (stereo not drawn) [Example 4, N-[4-dimethylamino-4-(4-methyl-benzyl)-cyclohexyl]-4-[4-(7-methoxy-benzo[1,3]dioxol-5-ylmethyl)-piperazin-1-yl]-4-oxo-butyramide] | 89% | 92% | – | –
CN(C)C1(Cc2ccc(Cl)cc2)CCC(NC(=O)CCC(=O)N2CC=CCC2)CC1 (stereo not drawn) [Example 5, N-[4-(4-chloro-benzyl)-4-dimethylamino-cyclohexyl]-4-(3,6-dihydro-2H-pyridin-1-yl)-4-oxo-butyramide] | 80% | 93% | – | –
Cc1ccc(CC2(N(C)C)CCC(NC(=O)CCC(=O)N3CCN(c4cccc(C)c4)CC3)CC2)cc1 (stereo not drawn) [Example 6, N-[4-dimethylamino-4-(4-methyl-benzyl)-cyclohexyl]-4-oxo-4-(4-m-tolyl-piperazin-1-yl)-butyramide] | 91% | 96% | – | –
CCOC(=O)C(C)NC(=O)CCC(=O)NC1CCC(Cc2ccc(Cl)cc2)(N(C)C)CC1 (stereo not drawn) [Example 7, 2-{3-[4-(4-chloro-benzyl)-4-dimethylamino-cyclohexylcarbamoyl]-propionylamino}-propanoic acid ethylester] | 91% | 93% | – | –
CN(C)C1(Cc2cccc(Cl)c2)CCC(NC(=O)CCC(=O)N2CCc3[nH]c4ccc(F)cc4c3C2)CC1 (stereo not drawn) [Example 8, N-[4-(3-chloro-benzyl)-4-dimethylamino-cyclohexyl]-4-(8-fluoro-1,3,4,5-tetrahydro-pyrido[4,3-b]indol-2-yl)-4-oxo-butyramide] | 85% | 92% | – | –
CCOC(=O)CCNC(=O)CCC(=O)NC1CCC(Cc2ccc(C)cc2)(N(C)C)CC1 (stereo not drawn) [Example 9, 3-{3-[4-dimethylamino-4-(4-methyl-benzyl)-cyclohexylcarbamoyl]-propionylamino}-propanoic acid ethylester] | 91% | 93% | – | –
Cc1ccc(CC2(N(C)C)CCC(NC(=O)CCC(=O)N3CCN(C(=O)c4cnc(C)cn4)CC3)CC2)cc1 (stereo not drawn) [Example 10, N-[4-dimethylamino-4-(4-methyl-benzyl)-cyclohexyl]-4-[4-(5-methyl-pyrazin-2-carbonyl)-piperazin-1-yl]-4-oxo-butyramide] | 78% | 92% | – | –
Cc1ccc(CC2(N(C)C)CCC(NC(=O)CCC(=O)N(C)CCNC(=O)C(F)(F)F)CC2)cc1 (stereo not drawn) [Example 11, N-[4-dimethylamino-4-(4-methyl-benzyl)-cyclohexyl]-N′-methyl-N′-[2-(2,2,2-trifluoro-acetylamino)-ethyl]-succinamide] | 77% | 92% | – | –
CN(C)C1(Cc2cccc(Cl)c2)CCC(NC(=O)CCC(=O)NCCc2ccccn2)CC1 (stereo not drawn) [Example 12, N-[4-(3-chloro-benzyl)-4-dimethylamino-cyclohexyl]-N′-(2-pyridin-2-yl-ethyl)-succinamide] | 95% | 92% | – | –
CN(C)C1(Cc2ccc(Cl)cc2)CCC(NC(=O)CCC(=O)N2CCSCC2)CC1 (stereo not drawn) [Example 13, N-[4-(4-chloro-benzyl)-4-dimethylamino-cyclohexyl]-4-oxo-4-thiomorpholin-4-yl-butyramide] | 72% | 92% | – | –
Cc1cnc(C(=O)N2CCN(C(=O)CCC(=O)NC3CCC(Cc4ccc(Cl)cc4)(N(C)C)CC3)CC2)cn1 (stereo not drawn) [Example 14, N-[4-(4-chloro-benzyl)-4-dimethylamino-cyclohexyl]-4-[4-(5-methyl-pyrazin-2-carbonyl)-piperazin-1-yl]-4-oxo-butyramide] | 78% | 95% | – | –
CCOc1ccc(N2CCN(C(=O)CCC(=O)NC3CCC(Cc4ccc(Cl)cc4)(N(C)C)CC3)CC2)cc1 (stereo not drawn) [Example 16, N-[4-(4-chloro-benzyl)-4-dimethylamino-cyclohexyl]-4-[4-(4-ethoxy-phenyl)-piperazin-1-yl]-4-oxo-butyramide] | 86% | 97% | – | –
C=CCN(C)C(=O)CCC(=O)NC1CCC(Cc2ccc(Cl)cc2)(N(C)C)CC1 (stereo not drawn) [Example 17, N-allyl-N′-[4-(4-chloro-benzyl)-4-dimethylamino-cyclohexyl]-N-methyl-succinamide] | 82% | 93% | – | –
COc1ccc(OC)c(CN2CCN(C(=O)CCCC(=O)NC3CCC(Cc4ccccc4)(N(C)C)CC3)CC2)c1 (stereo not drawn) [Example 18, 5-[4-(2,5-dimethoxy-benzyl)-piperazin-1-yl]-5-oxo-valeric acid (4-benzyl-4-dimethylamino-cyclohexyl)-amide] | 84% | 94% | – | –
Cc1ccc(CC2(N(C)C)CCC(NC(=O)CCC(=O)N3CC=CCC3)CC2)cc1 (stereo not drawn) [Example 19, 4-(3,6-dihydro-2H-pyridin-1-yl)-N-[4-dimethylamino-4-(4-methyl-benzyl)-cyclohexyl]-4-oxo-butyramide] | 74% | 93% | – | –
Cc1cccc(CC2(N(C)C)CCC(NC(=O)CCC(=O)N3CCC(C)CC3)CC2)c1 (stereo not drawn) [Example 20, N-[4-dimethylamino-4-(3-methyl-benzyl)-cyclohexyl]-4-(4-methyl-piperidin-1-yl)-4-oxo-butyramide] | 90% | 92% | – | –
Cc1ccc(CC2(N(C)C)CCC(NC(=O)CCC(=O)N3CCN(c4ccccn4)CC3)CC2)cc1 (stereo not drawn) [Example 21, N-[4-dimethylamino-4-(4-methyl-benzyl)-cyclohexyl]-4-oxo-4-(4-pyridin-2-yl-piperazin-1-yl)-butyramide] | 83% | 95% | – | –
Cc1cccc(CC2(N(C)C)CCC(NC(=O)CCC(=O)N(C)CC(=O)OCc3ccccc3)CC2)c1 (stereo not drawn) [Example 22, ({3-[4-dimethylainino-4-(3-methyl-benzyl)-cyclohexylcarbamoyl]-propionyl}-methyl-amino)-acetic acid benzyl ester] | – | – | 93% | 95%
Cc1cccc(CC2(N(C)C)CCC(NC(=O)CCC(=O)N3CCN(Cc4c(Cl)cccc4Cl)CC3)CC2)c1 (stereo not drawn) [Example 23, 4-[4-(2,6-dichloro-benzyl)-piperazin-1-yl]-N-[4-dimethylamino-4-(3-methyl-benzyl)-cyclohexyl]-4-oxo-butyramide] | 92% | 92% | – | –
CN(CC(=O)OC(C)(C)C)C(=O)CCCC(=O)NC1CCC(Cc2ccccc2)(N(C)C)CC1 (stereo not drawn) [Example 24, {[4-(4-benzyl-4-dimethylamino-cyclohexylcarbamoyl)-butyryl]-methyl-amino}-acetic acid tert butyl ester] | 91% | 92% | – | –
COc1ccc(F)c(CN2CCN(C(=O)CCCC(=O)NC3CCC(Cc4ccccc4)(N(C)C)CC3)CC2)c1 (stereo not drawn) [Example 25, 5-[4-(2-fluoro-5-methoxy-benzyl)-piperazin-1-yl]-5-oxo-valeric acid (4-benzyl-4-dimethylamino-cyclohexyl)-amide] | 95% | 97% | – | –
COCCCNC(=O)CCC(=O)NC1CCC(Cc2ccc(Cl)cc2)(N(C)C)CC1 (stereo not drawn) [Example 26, N-[4-(4-chloro-benzyl)-4-dimethylamino-cyclohexyl]-N′-(3-methoxy-propyl)-succinamide] | 79% | 93% | – | –
CC(=O)c1ccc(N2CCN(C(=O)CCC(=O)NC3CCC(Cc4ccc(C)cc4)(N(C)C)CC3)CC2)cc1 (stereo not drawn) [Example 27, 4-[4-(4-Acetyl-phenyl)-piperazin-1-yl]-N-[4-dimethylamino-4-(4-methyl-benzyl)-cyclohexyl]-4-oxo-butyramide] | 92% | 95% | – | –
Cc1ccc(CC2(N(C)C)CCC(NC(=O)CCC(=O)N3CCN(C(=O)OC(C)(C)C)CC3)CC2)cc1 (stereo not drawn) [Example 28, 4-{3-[4-dimethylamino-4-(4-methyl-benzyl)-cyclohexylcarbamoyl]-propionyl}-piperazin-1-carboxylic acid-tert-butylester] | 81% | 92% | – | –
CN(C)C1(Cc2cccc(Cl)c2)CCC(NC(=O)CCC(=O)NCC2CCCO2)CC1 (stereo not drawn) [Example 29, N-[4-(3-chloro-benzyl)-4-dimethylamino-cyclohexyl]-N′-(tetrahydro-furan-2-ylmethyl)-succinamide] | 91% | 94% | – | –
CCOC(=O)C(C)NC(=O)CCC(=O)NC1CCC(Cc2cccc(Cl)c2)(N(C)C)CC1 (stereo not drawn) [Example 30, 2-{3-[4-(3-chloro-benzyl)-4-dimethylamino-cyclohexylcarbamoyl]-propionylamino}-propanoic acid ethylester] | 96% | 93% | – | –
COC(=O)C(Cc1ccc(Cl)cc1)NC(=O)CCC(=O)NC1CCC(Cc2ccc(C)cc2)(N(C)C)CC1 (stereo not drawn) [Example 32, 3-(4-chloro-phenyl)-2-{3-[4-dimethylamino-4-(4-methyl-benzyl)-cyclohexylcarbamoyl]-propionylamino}-propanoic acid methylester] | 97% | 99% | – | –
